Patent US11814367B2, “Inhibitors of glycogen synthase 1 (GYS1) and methods of use thereof” (Maze Therapeutics, Inc., priority 2021, dated 2023)

Target: hGYS1 enzyme (recombinant hGYS1/GN1 protein) (Homo sapiens (Human), UniProt P13807)
Experiment: GYS1 coupled enzyme assay (PK/LDH)
Format: biochemical
Settings: hGYS1/GN1 50 nM, UDP-Glucose 0.8 mM, G6P 1 mM; geometric mean of at least 2 runs
Description: The GYS1 coupled enzyme assay is a kinetic biochemical assay that indirectly quantifies the rate of glycogen synthesis by coupling the conversion of GYS1 substrate UDP-glucose into UDP with downstream enzymatic reactions. UDP is released from UDP-glucose as glucose monomers are linked into the growing glycogen strand by GYS1. The coupled assay then proceeds with pyruvate kinase utilizing UDP and phospho(enol)pyruvate (PEP) to form pyruvate. Lactate dehydrogenase then converts pyruvate and NADH into lactate and NAD+. Oxidation of NADH to NAD+ can be measured continuously with a plate reader by quantifying the decrease in NADH absorbance at 340 nm over time.
Compounds that inhibit the hGYS1 enzyme and, subsequently, the downstream conversion of NADH to NAD+, were tested using assay ready plates (black, clear bottom 384 well plates) in a final DMSO reaction volume of 2.5% DMSO. The Assay Buffer contained 50 mM Tris pH 7.5, 2 mM MgCl2, and 100 mM KCl. Fresh stocks of BSA at a final concentration of 0.02% and TCEP at 1 mM were added before splitting buffer into hGYS1 buffer and substrate buffer. To the hGYS1 buffer, rabbit liver glycogen was added at a final concentration of 0.2% glycogen. Glucose-6-Phosphate was added at 1 mM, recombinant hGYS1/GN1 protein was added at 50 nM to the substrate buffer, phosphoenolpyruvate (PEP) was added at 2 mM, UDP-Glucose was added at 0.8 mM, NADH) was added at 0.6 mM, and Pyruvate Kinase/Lactate Dehydrogenase was added at 20 units/mL. The reaction was initiated by mixing hGYS1 buffer and substrate buffer at a 1:1 ratio. Both buffers were plated using a liquid dispensing device with hGYS1 buffer plated first followed by the substrate buffer. Plates were spun briefly to eliminate air bubbles and are immediately read in continuous mode at an absorbance of 340 nm, for 10 time points in one-minute increments, for a total of 10 minutes. The slope from these 10 time points was normalized to the positive and negative control wells. The duplicate % inhibition values are then averaged and fit to a Hill equation for dose response according to the Levenberg-Marquardt algorithm with the Hill equation maximum set to 100 and the minimum set to 0.
Unless otherwise specified, IC50 values are reported as the geometric mean of at least 2 assay runs on separate days. Each run represents the average of a technical replicate, where each compound was assayed twice in the same plate. […] A superscript “#” symbol in Table 2 indicates results from a single assay run.

Sequence of hGYS1 enzyme (recombinant hGYS1/GN1 protein) (P13807 whole entry): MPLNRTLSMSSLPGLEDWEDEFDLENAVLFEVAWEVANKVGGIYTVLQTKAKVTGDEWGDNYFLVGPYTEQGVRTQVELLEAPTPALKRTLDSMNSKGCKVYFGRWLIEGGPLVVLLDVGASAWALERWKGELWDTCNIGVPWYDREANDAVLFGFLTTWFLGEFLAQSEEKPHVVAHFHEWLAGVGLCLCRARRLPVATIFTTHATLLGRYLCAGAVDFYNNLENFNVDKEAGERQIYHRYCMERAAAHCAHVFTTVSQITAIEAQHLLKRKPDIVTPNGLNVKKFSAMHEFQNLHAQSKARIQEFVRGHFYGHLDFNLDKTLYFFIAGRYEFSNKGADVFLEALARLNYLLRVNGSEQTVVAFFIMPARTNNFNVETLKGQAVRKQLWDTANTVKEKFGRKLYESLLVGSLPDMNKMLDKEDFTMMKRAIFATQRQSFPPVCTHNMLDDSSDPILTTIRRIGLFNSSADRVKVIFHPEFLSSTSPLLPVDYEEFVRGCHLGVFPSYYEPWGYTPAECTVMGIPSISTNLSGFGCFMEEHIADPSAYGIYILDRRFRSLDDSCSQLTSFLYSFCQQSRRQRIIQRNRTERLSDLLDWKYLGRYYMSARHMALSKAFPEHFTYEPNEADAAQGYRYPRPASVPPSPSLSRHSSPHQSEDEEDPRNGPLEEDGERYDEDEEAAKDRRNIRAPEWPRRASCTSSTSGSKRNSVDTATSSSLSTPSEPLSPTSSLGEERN
Sequence of hGYS1 enzyme (recombinant hGYS1/GN1 protein) (P46976 whole entry partner): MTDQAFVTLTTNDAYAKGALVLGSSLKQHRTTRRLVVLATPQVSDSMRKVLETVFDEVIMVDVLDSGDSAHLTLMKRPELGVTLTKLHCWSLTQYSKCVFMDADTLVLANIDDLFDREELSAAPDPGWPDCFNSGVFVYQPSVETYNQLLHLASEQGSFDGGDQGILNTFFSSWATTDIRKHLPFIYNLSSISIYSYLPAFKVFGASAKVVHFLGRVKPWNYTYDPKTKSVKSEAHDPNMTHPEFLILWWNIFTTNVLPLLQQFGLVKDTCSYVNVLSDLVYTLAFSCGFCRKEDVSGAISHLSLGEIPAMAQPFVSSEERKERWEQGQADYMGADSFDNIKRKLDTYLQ

SMILES | IC50
CC(C)c1ccc(C(NC(=O)[C@@H]2C[C@@H](F)CN2C(=O)Cc2cnn[nH]2)c2ccc(F)cn2)cc1F (single isomer, unassigned) [Compound 616, (2S,4R)-4-fluoro-N-[(R) or (S)-[3-fluoro-4-(propan-2-yl)phenyl](5-fluoropyridin-2-yl)methyl]-1-[2-(1H-1,2,3-triazol-5-yl)acetyl]pyrrolidine-2-carboxamide] | 1320 nM
CC(C)c1ccc([C@@H](NC(=O)[C@@H]2C[C@@H](F)CN2C(=O)Cn2nncc2N2CCC2)c2ccccc2)nc1F [Compound 808, (2S,4R)-1-{2-[5-(azetidin-1-yl)-1H-1,2,3-triazol-1-yl]acetyl}-4-fluoro-N-[(S)-[6-fluoro-5-(propan-2-yl)pyridin-2-yl](phenyl)methyl] pyrrolidine-2-carboxamide] | 12 nM
COCc1oncc1C(=O)N1C[C@H](F)C[C@H]1C(=O)N[C@@H](c1ccccc1)c1ccc(C(C)C)cc1 [Compound 82, (2S,4R)-4-fluoro-1-[5-(methoxymethyl)-1,2-oxazole-4-carbonyl]-N-[(S)-phenyl[4-(propan-2-yl)phenyl]methyl]pyrrolidine-2-carboxamide] | 504 nM
COc1cc(C(=O)N2C[C@H](F)C[C@H]2C(=O)N[C@@H](c2ccccc2)c2ccc(C(C)C)cc2)nn1C [Compound 709, (2S,4R)-4-fluoro-1-(5-methoxy-1-methyl-1H-pyrazole-3-carbonyl)-N-[(S)-phenyl[4-(propan-2-yl)phenyl]methyl]pyrrol-idine-2-carboxamide] | 1140 nM
CC(C)c1ccc([C@@H](NC(=O)[C@@H]2C[C@@H](F)CN2C(=O)C(O)CO)c2ccccc2)cc1 (stereo partly drawn) [Compound 186, (2S,4R)-1-(2,3-dihydroxypropanoyl)-4-fluoro-N-[(S)-phenyl[4-(propan-2-yl)phenyl]methyl]pyrrolidine-2-carboxamide] | 97 nM
CC(C)c1ccc([C@@H](NC(=O)[C@@H]2C[C@@H](F)CN2C(=O)c2cc(-n3ccnc3)ccn2)c2ccccc2)cc1 [Compound 707, (2S,4R)-4-fluoro-1-[4-(1H-imidazol-1-yl)pyridine-2-carbonyl]-N-[(S)-phenyl[4-(propan-2-yl)phenyl]methyl]pyrrol-idine-2-carboxamide] | 1990 nM
CC(C)c1c(F)cc(C(NC(=O)[C@@H]2C[C@@H](F)CN2C(=O)Cc2cnn[nH]2)c2ccccc2)cc1F (single isomer, unassigned) [Compound 666, (2S,4R)-N-[(R) or (S)-[3,5-difluoro-4-(propan-2-yl)phenyl](phenyl)methyl]-4-fluoro-1-[2-(1H-1,2,3-triazol-5-yl)acetyl]pyrrolidine-2-carboxamide] | 2270 nM
CC(C)c1ccc([C@@H](NC(=O)[C@@H]2C[C@@H](F)CN2C(=O)c2cc3n(n2)CCCNC3=O)c2ccccc2)cc1 [Compound 131, (2S,4R)-4-fluoro-1-{4-oxo-4H,5H,6H,7H,8H-pyrazolo[1,5-a][1,4]diazepine-2-carbonyl}-N-[(S)-phenyl[4-(propan-2-yl)phenyl]methyl]pyrrolidine-2-carboxamide] | 563 nM
CC(C)c1ccc([C@@H](NC(=O)[C@@H]2C[C@@H](F)CN2C(=O)C(C)(C)c2ccccn2)c2ccccc2)cc1 [Compound 92, (2S,4R)-4-fluoro-1-[2-methyl-2-(pyridin-2-yl)propanoyl]-N-[(S)-phenyl[4-(propan-2-yl)phenyl]methyl]pyrrolidine-2-carboxamide] | 439 nM
CC(C)c1ccc([C@@H](NC(=O)[C@@H]2C[C@@H](F)CN2C(=O)c2ccc3c(c2)NC(=O)CC3)c2ccccc2)cc1 [Compound 97, (2S,4R)-4-fluoro-1-(2-oxo-1,2,3,4-tetrahydroquinoline-7-carbonyl)-N-[(S)-phenyl[4-(propan-2-yl)phenyl]methyl]pyrrolidine-2-carboxamide] | 712 nM
CC(C)c1ccc([C@@H](NC(=O)[C@@H]2C[C@@H](F)CN2C(=O)C(=O)Nc2cccnc2)c2ccccc2)cc1 [Compound 708, (2S,4R)-4-fluoro-N-[(S)-phenyl[4-(propan-2-yl)phenyl]methyl]-1-{[(pyridin-3-yl)carbamoyl]carbonyl} pyrrolidine-2-carboxamide] | 2510 nM
O=C(N[C@@H](c1ccccc1)c1ccc(C2CC2)c(F)c1)[C@@H]1C[C@@H](F)CN1C(=O)Cc1nnc(C2CC2)o1 [Compound 429, (2S,4R)-1-[2-(5-cyclopropyl-1,3,4-oxadiazol-2-yl)acetyl]-N-[(S)-(4-cyclopropyl-3-fluorophenyl)(phenyl)methyl]-4-fluoropyrrolidine-2-carboxamide] | 114 nM
CC(C)COc1cc(C(=O)N2C[C@H](F)C[C@H]2C(=O)N[C@@H](c2ccccc2)c2ccc(C(C)C)cc2)ccn1 [Compound 705, (2S,4R)-4-fluoro-1-[2-(2-methylpropoxy)pyridine-4-carbonyl]-N-[(S)-phenyl[4-(propan-2-yl)phenyl]methyl]pyrrol-idine-2-carboxamide] | 1720 nM
Cc1cn(CC(=O)N2C[C@H](F)C[C@H]2C(=O)N[C@@H](c2ccccc2)c2ccc(C(C)C)c(F)n2)c(=O)[nH]c1=O (relative stereo) [Compound 778, (2S,4R)-4-fluoro-N-[(R*)-[6-fluoro-5-(propan-2-yl)pyridin-2-yl](phenyl)methyl]-1-[2-(5-methyl-2,4-dioxo-1,2,3,4-tetrahydropyrimidin-1-yl)acetyl]pyrrolidine-2-carboxamide] | 381 nM
CC(C)c1cnc(C(NC(=O)[C@@H]2C[C@@H](F)CN2C(=O)Cc2cnn[nH]2)c2ccccc2)cc1C(F)F (single isomer, unassigned) [Compound 606, (2S,4R)-N-[(S) or (R)-[4-(difluoromethyl)-5-(propan-2-yl)pyridin-2-yl](phenyl)methyl]-4-fluoro-1-[2-(1H-1,2,3-triazol-5-yl)acetyl]pyrrolidine-2-carboxamide] | 1130 nM
CCn1nccc1C(=O)N1C[C@H](F)C[C@H]1C(=O)N[C@@H](c1ccccc1)c1ccc(C(C)C)cc1 [Compound 53, (2S,4R)-1-(1-ethyl-1H-pyrazole-5-carbonyl)-4-fluoro-N-[(S)-phenyl[4-(propan-2-yl)phenyl]methyl]pyrrolidine-2-carboxamide] | 789 nM
CC(Cn1cccn1)C(=O)N1C[C@H](F)C[C@H]1C(=O)N[C@@H](c1ccccc1)c1ccc(C(C)C)cc1 (stereo partly drawn) [Compound 80, (2S,4R)-4-fluoro-1-[2-methyl-3-(1H-pyrazol-1-yl)propanoyl]-N-[(S)-phenyl[4-(propan-2-yl)phenyl]methyl]pyrrolidine-2-carboxamide] | 318 nM
CC(=O)NCC(=O)N1CCC[C@H]1C(=O)NC(c1ccc(C2CC2)c(F)c1)c1cccc2[nH]c(=O)oc12 (single isomer, unassigned) [Compound 643, (2S)-N-[(R) or (S)-(4-cyclopropyl-3-fluorophenyl)(2-oxo-2,3-dihydro-1,3-benzoxazol-7-yl)methyl]-1-(2-acetamidoacetyl) pyrrolidine-2-carboxamide] | 2180 nM
CC(=O)N1CC(F)(C(=O)N2C[C@H](F)C[C@H]2C(=O)N[C@@H](c2ccccc2)c2ccc(C(C)C)cc2)C1 [Compound 143, (2S,4R)-1-(1-acetyl-3-fluoroazetidine-3-carbonyl)-4-fluoro-N-[(S)-phenyl[4-(propan-2-yl)phenyl]methyl]pyrrolidine-2-carboxamide] | 323 nM
CC(=O)Nc1cccc([C@H](NC(=O)[C@@H]2C[C@@H](F)CN2C(=O)Cc2cn(C)nn2)c2ccc(C(C)C)cc2)c1 [Compound 649, (2S,4R)-N-[(R)-(3-acetamidophenyl) [4-(propan-2-yl)phenyl]methyl]-4-fluoro-1-[2-(1-methyl-1H-1,2,3-triazol-4-yl)acetyl]pyrrolidine-2-carboxamide] | 483 nM
CC(=O)Nc1cc(C(=O)N2C[C@H](F)C[C@H]2C(=O)N[C@@H](c2ccccc2)c2ccc(C(C)C)cc2)ccn1 [Compound 72, (2S,4R)-1-(2-acetamidopyridine-4-carbonyl)-4-fluoro-N-[(S)-phenyl[4-(propan-2-yl)phenyl]methyl]pyrrolidine-2-carboxamide] | 472 nM
CC(=O)N1C[C@@H]2[C@@H](C(=O)N3C[C@H](F)C[C@H]3C(=O)N[C@@H](c3ccccc3)c3ccc(C(C)C)cc3)CO[C@@H]2C1 [Compound 165, (2S,4R)-1-[(3R,3aS,6aS)-5-acetyl-hexahydro-2H-furo[2,3-c]pyrrole-3-carbonyl]-4-fluoro-N-[(S)-phenyl[4-(propan-2-yl)phenyl]methyl]pyrrolidine-2-carboxamide] | 361 nM
